Test results taken from paper PMC5816697 (European journal of medicinal chemistry, 2018).
“Also recorded” adds a separate entry of the source.

Key:
[1] = test system: phosphorylation of MEK and ERK (BRAF^V600E downstream signaling); assay: Western blot of MEK/ERK phosphorylation in A375 cells; format: cell-based
Ba/F3 BCR-ABL = assay: MTT growth inhibition assay, Ba/F3 cells expressing Bcr-Abl; format: cell-based; settings: ratio of IC50 values
[2] = test system: phosphorylation of Abl at Y412; assay: Immunoblot of Abl Y412 phosphorylation in BCR-ABL-expressing Ba/F3 cells; format: cell-based
panel of 244 kinases = assay: Kinome profiling against a panel of 244 kinases; format: biochemical; settings: 1 μM compound

With `CCCS(=O)(=O)Nc1ccc(F)c(C(=O)c2c[nH]c3ncc(-c4ccc(Cl)cc4)cc23)c1F` [Vem, vemurafenib, reference compound] the “effect on phosphorylation of MEK and ERK” value ([1]; concentrations above 1 μM) was “abolished the phosphorylation of MEK and ERK” and the “effect on phosphorylation of MEK” value ([1]; various concentrations, Figure 4) was “potently blocked phosphorylation of MEK”.
For `CC(C)n1nc(C#Cc2cccc3cc(-c4ccc(CN5CCN(C)CC5)cc4)ncc23)c2c(N)ncnc21` [Compound 2f, 1-Isopropyl-3-((3-(4-((4-methylpiperazin-1-yl)methyl)phenyl)isoquinolin-8-yl)ethynyl)-1H-pyrazolo[3,4-d]pyrimidin-4-amine], the “fold less potent than parent compound 1 against Bcr-Abl Ba/F3 cells” value (Ba/F3 BCR-ABL) was 44 fold and the “fold lower potency than compound 1, Abl Y412 phosphorylation” value [2] was “approximately 30 fold”.
With `CCn1nc(C#Cc2cccc3cc(-c4cccc(C(F)(F)F)c4)ncc23)c2c(N)ncnc21` [Compound 2d, 1-Ethyl-3-((3-(3-(trifluoromethyl)phenyl)isoquinolin-8-yl)ethynyl)-1H-pyrazolo[3,4-d]p yrimidin-4-amine] the “effect on phosphorylation of MEK” value ([1]; concentrations up to 100 μM) was “failed to suppress the phosphorylation of MEK; also recorded: little effects”.
With `CC(C)n1nc(C#Cc2cccc(NC(=O)c3cccc(C(F)(F)F)c3)c2)c2c(N)ncnc21` [Compound 1] the “number of kinases inhibited by over 90%” value (panel of 244 kinases) was 44.
